# Results: patent US5376679A, “Bicyclic or tricyclic biocidal compounds” (Shell Internationale Research Maatschappij B.V., priority 1988, dated 1994)
# Key:
# Botrytis cinerea = assay: Direct protectant activity against vine grey mould (Bcp); type: in vivo; details: foliar spray, 1 kg/ha; activity grade 1 or 2, not defined
# From the text: (b) Direct Protectant Activity Against Vine Grey Mould (Botrytis cinerea; Bcp) The test is a direct protectant one using a foliar spray and is effected as described under (a), with the difference that the leaves are inoculated by spraying with an aqueous solution containing 10^5 conidia/ml.
# [1] = system: Pseudocercosporella herpotrichoides; assay: In vitro activity against wheat eyespot (Ph); type: cell-based; parameters: Ph: activity against wheat eyespot: scale not given here; details: in vitro, 100 ppm in agar, 11 days; activity grade 1 or 2, not defined
# Protocol: (c) Activity Against Wheat Eyespot (Pseudocercosporella herpotrichoides; Ph)
# The test is an in vitro one. Samples are prepared wherein 0.7 mls solution containing 2 mg active material dissolved in acetone is evenly dispersed in 20 ml molten half-strength potato dextrose agar (formed by dissolving 2 g potato extract, 10 g dextrose and 7.5 g agar in 1 liter of water and sterilising for 15 minutes and 121° C.) and the resulting 20 ml portions are allowed to set in 9 cm petri dishes. The concentration of active material in the resulting samples is 100 ppm. Upon setting, two plugs of 5 mm diameter taken from the advancing edge of a stock plate of a 3 to 4 week old culture of P.herpotrichoides on full strength potato dextrose agar, incubated at 20°-22° C. in darkness, are placed, equally spaced on the surface of each sample, mycelial side uppermost. The samples are incubated for 11 days at 20°-22° C. in darkness before assessment. Diametric growth is measured with the width of the plug subtracted and results compared with growth on a sample wherein 0.7 ml acetone containing no active material is dispersed in 20 ml half-strength potato agar.
# Fusarium culmorum = assay: Activity against seedling wheat blight, soil drench (Fs); type: in vivo; parameters: scale not given here; details: 10 kg/ha, 21 days, activity grade 1 or 2, not defined
# Protocol: (d) Activity Against Seedling Wheat Blight (Fusarium culmorum; Fs)
# The test is an anti-sporulant one using a soil drench. Surface sterilised wheat seeds (var Waggoner) are inoculated by soaking in an aqueous suspension containing 7×10^5 spores/ml (60 mg seed per 80 ml suspension) at 22° C. for 6 hours. The seeds are then sown in pots (5 per pot) in sand at a depth of 1 cm. 1 day after inoculation and planting the active material is applied at a rate of 10 kg/ha by pouring on a soil drench (concentration 0.36 g/l active material in 12% v/v acetone/water) evenly over the sand. The pots are then transferred to a glasshouse, kept at 25° C. and watered sparingly. 21 days after inoculation the resulting seedlings are removed from the pots and their roots are gently washed. Visual assessment is made based on lesion development on stem base and upper roots in comparison with control seedlings.
# Plasmopara viticola = assay: Direct protectant activity against vine downy mildew (Pvp); type: in vivo; parameters: Pvp: direct protectant activity against vine downy mildew: scale not given here; details: foliar spray, 1 kg/ha; activity grade 1 or 2, not defined
# From the text: (a) Direct Protectant Activity Against Vine Downy Mildew (Plasmopara viticola; Pvp)
# The test is a direct protectant one, using a foliar spray. The lower surfaces of leaves of whole vine plants (cv Cabernet Sauvignon) are sprayed with a solution of active material in 1:1 v/v water/acetone containing 0.04% w "Triton X-155" (trade mark) (octylphenol polyoxyethylene surfactant), at a dosage of 1 kilogram of active material per hectare using a track sprayer which delivers 620 liters/ha, and after a subsequent 24 hours under normal glasshouse conditions the lower surfaces of the leaves are inoculated by spraying with an aqueous solution containing 10^4 zoosporangia/ml. The inoculated plants are kept for 24 hours in a high humidity compartment, 5 days under normal glasshouse conditions and then returned for a further 24 hours to high humidity. Assessment is based on the percentage of leaf area covered by sporulation compared with that on control leaves.
# Alternaria Solani = assay: Direct protectant activity against tomato early blight (As); type: in vivo; parameters: As: activity against tomato early blight: scale not given here; details: foliar spray as under (a), 8 days; activity grade 1 or 2, not defined; note: dose 1000 g/ha
# Protocol: (g) Activity Against Tomato Early Blight (Alternaria Solani; As). The test is a direct protectant one using a foliar spray. The upper surfaces of leaves of young tomato plants are sprayed with a solution of active material as described in (a) above. After 24 hours under normal glasshouse conditions, the upper surfaces of the leaves are inoculated by spraying with an aqueous suspension containing 10^4 spores/ml. The inoculated plants are kept for 72 hours in a high humidity compartment and are then removed to lower humidity (50-70% relative humidity). Assessment is made 8 days after inoculation.
# Leptosphaeria nodorum = assay: Direct antisporulant activity against wheat leafspot (Ln); type: in vivo; parameters: scale not given here; details: foliar spray, 1 kg/ha; activity grade 1 or 2, not defined
# Protocol: (e) Activity Against Wheat Leafspot (Leptosphaeria nodorum; Ln) The test is a direct antisporulant one, using a foliar spray. Leaves of wheat plants ([…]), at the single leaf stage, are inoculated by spraying with an aqueous suspension containing 8×10^5 spores/mi. The inoculated plants are kept for 24 hours in a high humidity compartment prior to treatment. […] After drying, the plants are kept for 5 days under normal glasshouse conditions, followed by assessment. Assessment is based on the percentage of leaf area covered by sporulation compared with that on leaves of control plants.
# Puccinia Recondita = assay: Direct protectant activity against wheat brown rust (Pr); type: in vivo; parameters: scale not given here; details: foliar spray, 1 kg/ha, 10 days; activity grade 1 or 2, not defined
# Protocol: (i) Activity Against Wheat Brown Rust (Puccinia Recondita; Pr) The test is a direct protectant one using a foliar spray. […] The plants are then sprayed with the test compound at a dosage of 1 kg/ha using a track sprayer as described under (a). Test compounds are applied as solutions or suspensions in a mixture of acetone and water (50:50 v/v) containing 0.04% surfactant ("TWEEN 20"--Trade Mark). 18-24 hours after treatment, the seedlings are inoculated by spraying the plants from all sides with an aqueous spore suspension containing about 10^5 spores/ml. For 18 hours after inoculation, the plants are kept in high humidity conditions at a temperature of 20°-22° C. Thereafter, the plants are kept in ambient glasshouse conditions, that is, in moderate relative humidity and at a temperature of 20° C. The disease is assessed 10 days after inoculation on the basis of the percentage of the plant covered by sporulating pustules compared with that on the control plants.
# [2] = system: Erysiphe graminis f.sp. hordei; assay: Direct antisporulant activity against barley powdery mildew (Eg); type: in vivo; parameters: scale not given here; details: foliar spray, 1 kg/ha; activity grade 1 or 2, not defined
# From the text: (f) Activity Against Barley Powdery Mildew (Erysiphe graminis f.sp. hordei; Eg) The test is a direct antisporulant one, using a foliar spray. Leaves of barley seedlings, cultivar Golden Promise, are inoculated by dusting with mildew conidia one day prior to treatment with the test compound. The inoculated plants are kept overnight at glasshouse ambient temperature and humidity prior to treatment. […] After drying, plants are returned to a compartment at ambient temperature and humidity for up to 7 days, followed by assessment. Assessment is based on the percentage of leaf area covered by sporulation compared with that on leaves of control plants.
# Saccharomyces cerevisiae = assay: Minimum inhibitory concentration, yeast (Sc); type: cell-based, Saccharomyces cerevisiae (ATCC 9763); details: 30° C., 24 and 72 hours
# Protocol: Inocula of S. cerevisiae were prepared as for S. aureus, B. subtilis and E. coli, but using yeast malt broth in place of the typtone soya broth. The yeast malt broth was prepared by suspending 3 g yeast extract, 3 g malt extract, 5 g peptone and 10 g dextrose in 1 liter of distilled water, warming to achieve solution and sterilising by autoclaving at 121° C. for 15 minutes.
# (§1) Test procedures were as follows:
# (§2) (ii) Dilution Series for Other Test Bacteria, Yeast and Filamentous Fungi
# (§3) Dilution series from the stock solution of each compound were prepared in sterile distilled water. These contained 50, 100, 500 and 1000 ppm compound. To duplicate wells of a compartmentalised square petri dish 0.3 ml of each test compound concentration was added together with 2.7 ml of one of the microbial inocula described above. This gave final concentrations of the test compound of 5, 10, 50 and 100 ppm.
# (§4) After incubation, in the dark, at 30° C. the wells were examined for the presence or absence of growth. Bacterial and yeast cultures were examined after 24 hours and 72 hours incubation and the fungi cultures after 3, 7 and 10 days.
# (§5) By means of the above tests minimum inhibitory concentrations were determined for the various test compounds.
# Desulfovibrio sp. = assay: Minimum inhibitory concentration, sulphate-reducing bacteria (Dsp); type: cell-based; details: 30° C., 2, 5 and 10 days
# Protocol: The sulphate reducing bacteria Desulfovibrio sp. were cultured in a modified Postgate's Medium B for 48 hours at 30° C. and used directly as an inoculum. The modified Postgate's Medium B consisted of 0.5 g dipotassium hydrogen phosphate, 1 g ammonium chloride, 1 g sodium sulphate, 5 g sodium lactate, 1 g yeast extract, 0.1 ml thioglycolic acid, 0.1 ml ascorbic acid, 0.5 g ferrous sulphate heptahydrate, 750 ml aged seawater and 250 ml distilled water, pH adjusted to 7.8, divided into aliquots and sterilised by autoclaving at 121° C. for 15 minutes. […] Test procedures were as follows: (i) Suphate-reducing Bacteria Test Dilution Series Duplicate aliquots (9.9 ml) of dilution series from the stock solutions of each compound were prepared in a modified Postgate's Medium B described above. These contained 100 ppm compound. These were then inoculated with 0.1 ml of inoculum. After incubation at 30° C., the presence or absence of growth--as indicated by a blackening of the medium due to ferrous sulphide production--was recorded at 2, 5 and 10 days. […] By means of the above tests minimum inhibitory concentrations were determined for the various test compounds.
# Cladosporium resinae = assay: Minimum inhibitory concentration, Cladosporium resinae (Cr); type: cell-based; details: Amorphotheca resinae, 30° C., 3, 7 and 10 days
# Protocol: (§6) Inocula of the fungi Aspergillus niger, Cladosporium resinae and Chaetomium globosum were prepared containing 5×10^5 conidia/ml in a potato dextrose broth. The potato dextrose broth was prepared by suspending 4 g potato extract and 20 g dextrose in 1 liter of distilled water, warming to achieve solution, separating into aliquots and sterilising by autoclaving at 121° C. for 15 minutes.
# as §1, §2, §3, §4, §5
# Staphylococcus aureus = assay: Minimum inhibitory concentration, Staphylococcus aureus (Sa); type: cell-based, Staphylococcus aureus (NCIB 6571); details: 30° C., 24 and 72 hours
# Protocol: (§7) In respect of S. aureus, B. subtilis and E. coli, the microorganisms were cultured in 50 ml aliquots of a tryptone soya broth in 250 ml conical flasks at 30° C. on a rotary shaker at 200 rpm for 24 hours. Tryptone soya broth was prepared by adding 17 g pancreatic digest of casein, 3 g […] digest of soyabean meal, 5 g of sodium chloride, 2.5 g of dipotassium hydrogen phosphate and 2.5 g of dextrose to 1 liter of distilled water, mixing and sterilising by autoclaving at 121° C. for 15 minutes. 1 ml aliquots of the resulting cultures were mixed with 99 ml of fresh tryptone soya broth and used as inocula for tests. […] Test procedures were as follows: (ii) Dilution Series for Other Test Bacteria, Yeast and Filamentous Fungi Dilution series from the stock solution of each compound were prepared in sterile distilled water. These contained 50, 100, 500 and 1000 ppm compound. To duplicate wells of a compartmentalised square petri dish 0.3 ml of each test compound concentration was added together with 2.7 ml of one of the microbial inocula described above. […] After incubation, in the dark, at 30° C. the wells were examined for the presence or absence of growth. Bacterial and yeast cultures were examined after 24 hours and 72 hours incubation and the fungi cultures after 3, 7 and 10 days. By means of the above tests minimum inhibitory concentrations were determined for the various test compounds.
# Aspergillus niger = assay: Minimum inhibitory concentration, Aspergillus niger (An); type: cell-based, Aspergillus niger (CMI 17454); details: 30° C., 3, 7 and 10 days
# Protocol: as §6, §1, §2, §3, §4, §5
# Bacillus subtilis = assay: Minimum inhibitory concentration, Bacillus subtilis (Bs); type: cell-based; details: 30° C., 24 and 72 hours
# Protocol: as §7
# Escherichia coli = assay: Minimum inhibitory concentration, Escherichia coli (Ec); type: cell-based, Escherichia coli (NCIB 9517); details: 30° C., 24 and 72 hours
# Protocol: as §7
# Chaetomium globosum = assay: Minimum inhibitory concentration, Chaetomium globosum (Chg); type: cell-based; details: 30° C., 3, 7 and 10 days
# Protocol: as §6, §1, §2, §3, §4, §5
Structure (SMILES),Bcp: direct protectant activity against vine grey mould (Botrytis cinerea),Ph: activity against wheat eyespot [1],Fs: activity against seedling wheat blight (Fusarium culmorum),Pvp: direct protectant activity against vine downy mildew (Plasmopara viticola),As: activity against tomato early blight (Alternaria Solani),Ln: activity against wheat leafspot (Leptosphaeria nodorum),Pr: activity against wheat brown rust (Puccinia Recondita),Eg: activity against barley powdery mildew [2],MIC (Saccharomyces cerevisiae) [µg/mL],MIC (Desulfovibrio sp.) [µg/mL],MIC (Cladosporium resinae) [µg/mL],MIC (Staphylococcus aureus) [µg/mL],MIC (Aspergillus niger) [µg/mL],MIC (Bacillus subtilis) [µg/mL],MIC (Escherichia coli) [µg/mL],MIC (Chaetomium globosum) [µg/mL]
CC1(C)Cc2cccc([N+]([O-])=NC#N)c2O1 [Example 2],2,2,2,1,,,,,,,,,,,,
Cc1ccc([N+]([O-])=NC#N)c2c1CC(C)(C)O2 [Example 3],1,2,1,2,1,1,,,,,,,,,,
Cc1cc2c(c([N+]([O-])=NC#N)c1)OC(C)(C)C2 [Example 7],,1,1,2,,1,2,,,,,,,,,
CCc1cc2cccc([N+]([O-])=NC#N)c2o1 [Example 19],,1,1,,2,,2,1,,,,,,,,
CCCCc1cc2cccc([N+]([O-])=NC#N)c2o1 [Example 20],,,2,,,1,1,,> 100,> 100,100,> 100,100,> 100,> 100,
N#CN=[N+]([O-])c1cccc2cc(-c3ccccc3)oc12 [Example 21],1,,,,,,,,,,,,,,,
Cc1cc2c(F)ccc([N+]([O-])=NC#N)c2o1 [Example 22],1,2,2,,,,,2,25,50,10 to 25,> 100,10,50 to 100,> 100,5
N#CN=[N+]([O-])c1ccc2oc3c(c2c1)CCCC3 [Example 24],,1,1,2,2,,1,,,,,,,,,
COC(=O)N=[N+]([O-])c1cc(C)cc2c1OC(C)C2 (stereo not drawn) [Example 45],,,,1,1,,,2,,,,,,,,
